This note sets out measurements from paper PMC5477233 (Chembiochem : a European journal of chemical biology, 2016).

“Also recorded” adds a separate entry of the source.

For this experiment, the system named is human insulin receptor. Description: in vitro binding to the human insulin receptor. To be noted: compared with wild-type biosynthetic human insulin (Figure S10).

Regarding [(1-^13C=^18O)Phe^B24]human insulin, the receptor-binding activity entry is reported as “full insulin receptor binding activity; also recorded: fully active in insulin receptor binding”.
